{"source": "ChEMBL document CHEMBL3758118", "about": "“Effects of a novel carbocyclic analog of pyrrolo[2,3-d]pyrimidine nucleoside on pleiotropic induction of cell death in prostate cancer cells with different androgen responsiveness” (2016)", "key": {"LNCaP [1]": {"test_system": "LNCaP", "test": "Induction of apoptosis in human LNCAP cells assessed as cleaved PARP level at 6 uM by western blot analysis", "assay_type": "functional, cell-based"}, "LNCaP [2]": {"test_system": "LNCaP", "test": "Induction of apoptosis in human LNCAP cells assessed as p21(Cip1) expression at 6 uM by western blotting analysis", "assay_type": "functional, cell-based"}, "LNCaP [3]": {"test_system": "LNCaP", "test": "Induction of apoptosis in human LNCAP cells assessed as caspase3 level at 6 uM by western blot analysis", "assay_type": "functional, cell-based"}, "LNCaP [4]": {"test_system": "LNCaP", "test": "Cell cycle distribution in human LNCAP cells assessed as accumulation at sub-G1 phase at 6 uM after 24 hrs in presence of 100 uM AR inhibitor flutamide by propidium-iodide staining based flow cytometry", "assay_type": "functional"}, "DU-145 [5]": {"test_system": "DU-145", "test": "Induction of apoptosis in human DU145 cells assessed as chromatin condensation at 6 uM after 24 hrs by transmission electron microscopic analysis", "assay_type": "functional, cell-based"}, "LNCaP [6]": {"test_system": "LNCaP", "test": "Induction of apoptosis in human LNCAP cells assessed as increase in p21(Cip1) expression at 6 uM after 24 hrs by western blotting analysis", "assay_type": "functional, cell-based"}, "LNCaP [7]": {"test_system": "LNCaP", "test": "Induction of apoptosis in human LNCaP C4-2 cells assessed as increase in p21(Cip1) expression at 9 uM after 48 hrs in presence of 100 uM AR inhibitor flutamide by western blotting analysis", "assay_type": "functional, cell-based"}, "LNCaP [8]": {"test_system": "LNCaP", "test": "Induction of apoptosis in human LNCAP cells assessed as chromatin condensation at 6 uM after 24 hrs by transmission electron microscopic analysis", "assay_type": "functional, cell-based"}, "LNCaP [9]": {"test_system": "LNCaP", "test": "Induction of apoptosis in human LNCaP C4-2 cells assessed as increase p21(Cip1) mRNA level at 9 uM by semiquantitative RT-PCR technique relative to control", "assay_type": "functional"}, "LNCaP [10]": {"test_system": "LNCaP", "test": "Induction of apoptosis in human LNCaP C4-2 cells assessed as increase in p21(Cip1) expression at 9 uM after 48 hrs by western blotting analysis", "assay_type": "functional, cell-based"}, "LNCaP [11]": {"test_system": "LNCaP", "test": "Induction of apoptosis in human LNCAP cells assessed as caspase-3 expression at 6 uM after 24 hrs cell pretreated with 100 uM AR inhibitor flutamide by western blot analysis", "assay_type": "functional, cell-based"}, "DU-145 [12]": {"test_system": "DU-145", "test": "Induction of apoptosis in human DU145 cell assessed as p21(Cip1) expression at 6 uM after 24 hrs by western blotting analysis", "assay_type": "functional, cell-based"}, "LNCaP [13]": {"test_system": "LNCaP", "test": "Induction of apoptosis in human LNCaP C4-2 cells assessed as increase in cleaved PARP level at 9 uM after 48 hrs in presence of 100 uM AR inhibitor flutamide by western blot analysis", "assay_type": "functional, cell-based"}, "DU-145 [14]": {"test_system": "DU-145", "test": "Induction of apoptosis in human DU145 cells assessed as cleaved PARP level at 6 uM after 24 hrs by western blotting analysis", "assay_type": "functional, cell-based"}, "LNCaP [15]": {"test_system": "LNCaP", "test": "Induction of apoptosis in human LNCAP cells assessed as cleaved PARP expression at 6 uM after 24 hrs cell pretreated with 100 uM AR inhibitor flutamide by western blot analysis", "assay_type": "functional, cell-based"}, "LNCaP [16]": {"test_system": "LNCaP", "test": "Antiproliferative activity against human LNCaP C4-2 cells assessed as cell viability at 6 uM after 24 hrs by MTT assay", "assay_type": "functional, cell-based"}, "[17]": {"test": "Cell cycle distribution in human LNCaP C4-2 cells assessed as accumulation at sub-G1 phase at 9 uM for 48 hrs in presence of 100 uM AR inhibitor flutamide by propidium-iodide staining based flow cytometry", "assay_type": "functional"}, "LNCaP [18]": {"test_system": "LNCaP", "test": "Induction of apoptosis in human LNCaP C4-2 cells assessed as increase in caspase3 level at 9 uM after 48 hrs in presence of 100 uM AR inhibitor flutamide by western blot analysis", "assay_type": "functional, cell-based"}, "LNCaP [19]": {"test_system": "LNCaP", "test": "Induction of apoptosis in human LNCAP cells assessed as increase in p21(Cip1) mRNA level at 6 uM by semiquantitative RT-PCR technique relative to control", "assay_type": "functional"}, "LNCaP [20]": {"test_system": "LNCaP", "test": "Induction of apoptosis in human LNCAP cells assessed as p21(Cip1) expression at 6 uM after 24 hrs cell pretreated with 100 uM AR inhibitor flutamide by western blot analysis", "assay_type": "functional, cell-based"}, "LNCaP [21]": {"test_system": "LNCaP", "test": "Induction of apoptosis in human LNCAP cells assessed as increase active caspase3 level at 6 uM after 24 hrs by western blotting analysis", "assay_type": "functional, cell-based"}, "LNCaP [22]": {"test_system": "LNCaP", "test": "Antiproliferative activity against human LNCaP C4-2 cells assessed as cell viability at 9 uM after 48 hrs by MTT assay", "assay_type": "functional, cell-based"}, "LNCaP [23]": {"test_system": "LNCaP", "test": "Induction of apoptosis in human LNCAP cells assessed as p21(Cip1) mRNA level at 6 uM in presence of 100 uM AR inhibitor flutamide by semiquantitative RT-PCR technique relative to control", "assay_type": "functional"}, "DU-145 [24]": {"test_system": "DU-145", "test": "Induction of apoptosis in human DU145 cells assessed as accumulation of autophagic vacuoles in cytoplasm at 6 uM after 24 hrs by fluorescence microscopic analysis", "assay_type": "functional, cell-based"}, "[25]": {"test": "Cell cycle distribution in human LNCaP C4-2 cells assessed as accumulation at sub-G1 phase at 9 uM after 48 hrs by propidium iodide staining based flow cytometry", "assay_type": "functional"}, "LNCaP [26]": {"test_system": "LNCaP", "test": "Antiproliferative activity against human LNCAP cells assessed as cell viability at 6 uM after 24 hrs by MTT assay", "assay_type": "functional, cell-based"}, "LNCaP [27]": {"test_system": "LNCaP", "test": "Induction of apoptosis in human LNCAP cells assessed as formation of crescent shaped apoptotic bodies at 6 uM after 24 hrs by transmission electron microscopic analysis", "assay_type": "functional, cell-based"}, "LNCaP [28]": {"test_system": "LNCaP", "test": "Induction of apoptosis in human LNCaP C4-2 cells assessed as increase in cleaved PARP level at 9 uM after 48 hrs by western blot analysis", "assay_type": "functional, cell-based"}, "DU-145 [29]": {"test_system": "DU-145", "test": "Induction of apoptosis in human DU145 cells assessed as formation of crescent shaped apoptotic bodies at 6 uM after 24 hrs by transmission electron microscopic analysis", "assay_type": "functional, cell-based"}, "DU-145 [30]": {"test_system": "DU-145", "test": "Induction of apoptosis in human DU145 cells assessed as active caspase-3 level at 6 um after 24 hrs by western blotting analysis", "assay_type": "functional, cell-based"}, "LNCaP [31]": {"test_system": "LNCaP", "test": "Induction of apoptosis in human LNCAP cells assessed as increase in cleaved PARP level at 6 uM after 24 hrs by western blotting analysis", "assay_type": "functional, cell-based"}, "LNCaP [32]": {"test_system": "LNCaP", "test": "Antiproliferative activity against human LNCaP C4-2 cells assessed as cell viability at 6 uM after 48 hrs by MTT assay", "assay_type": "functional, cell-based"}, "LNCaP [33]": {"test_system": "LNCaP", "test": "Induction of apoptosis in human LNCaP C4-2 cells assessed as increase in caspase3 level at 9 uM after 48 hrs by western blotting analysis", "assay_type": "functional, cell-based"}, "LNCaP [34]": {"test_system": "LNCaP", "test": "Induction of apoptosis in human LNCAP cells assessed as caspase-8 expression at 6 uM after 24 hrs cell pretreated with 100 uM AR inhibitor flutamide by western blot analysis", "assay_type": "functional, cell-based"}, "LNCaP [35]": {"test_system": "LNCaP", "test": "Induction of apoptosis in human LNCAP cells assessed as caspase-9 expression at 6 uM after 24 hrs cell pretreated with 100 uM AR inhibitor flutamide by western blot analysis", "assay_type": "functional, cell-based"}, "DU-145 [36]": {"test_system": "DU-145", "test": "Induction of apoptosis in human DU145 cells assessed as increase in cleaved PARP level at 6 uM after 48 hrs by western blotting analysis", "assay_type": "functional, cell-based"}, "DU-145 [37]": {"test_system": "DU-145", "test": "Induction of apoptosis in human DU145 cells assessed as increase in p21(Cip1) expression at 6 uM after 48 hrs by western blotting analysis", "assay_type": "functional, cell-based"}, "DU-145 [38]": {"test_system": "DU-145", "test": "Induction of apoptosis in human DU145 cells assessed as DNA fragmentation at 6 uM after 48 hrs in presence of 5 mM autophagy inhibitor 3-methyladenine by TUNEL assay", "assay_type": "functional, cell-based"}}, "note": "Active and inactive are the calls of the source. The calls are words filed in the database; no cut-off is given here."}
{"molecule": "NC(=O)c1c(Br)n(C2CCCC2)c2ncnc(N)c12", "values": [{"measurement": "Activity", "setting": "LNCaP [1]", "value": "inactive"}, {"measurement": "Activity", "setting": "LNCaP [2]", "value": "inactive"}, {"measurement": "Activity", "setting": "LNCaP [3]", "value": "inactive"}]}
{"molecule": "NC(=O)c1c(Br)nc2n(C3CCCC3)cnc(N)c1-2", "values": [{"measurement": "Activity", "setting": "LNCaP [4]", "value": "inactive"}, {"measurement": "Activity", "setting": "DU-145 [5]", "value": "inactive"}, {"measurement": "Activity", "setting": "LNCaP [6]", "value": "Active"}, {"measurement": "Activity", "setting": "LNCaP [7]", "value": "Active"}, {"measurement": "Activity", "setting": "LNCaP [8]", "value": "Active"}, {"measurement": "fold change (FC)", "setting": "LNCaP [9]", "value": 23}, {"measurement": "Activity", "setting": "LNCaP [10]", "value": "Active"}, {"measurement": "Activity", "setting": "LNCaP [11]", "value": "inactive"}, {"measurement": "Activity", "setting": "DU-145 [12]", "value": "inactive"}, {"measurement": "Activity", "setting": "LNCaP [13]", "value": "Active"}, {"measurement": "Activity", "setting": "DU-145 [14]", "value": "inactive"}, {"measurement": "Activity", "setting": "LNCaP [15]", "value": "inactive"}, {"measurement": "Activity", "setting": "LNCaP [16]", "value": "inactive"}, {"measurement": "Activity", "setting": "[17]", "value": "Active"}, {"measurement": "Activity", "setting": "LNCaP [18]", "value": "Active"}, {"measurement": "fold change (FC)", "setting": "LNCaP [19]", "value": 56.98}, {"measurement": "Activity", "setting": "LNCaP [20]", "value": "inactive"}, {"measurement": "Activity", "setting": "LNCaP [21]", "value": "Active"}, {"measurement": "Activity", "setting": "LNCaP [22]", "value": "Active"}, {"measurement": "fold change (FC)", "setting": "LNCaP [23]", "value": 0.38}, {"measurement": "Activity", "setting": "DU-145 [24]", "value": "Active"}, {"measurement": "Activity", "setting": "[25]", "value": 30, "unit": "%"}, {"measurement": "Activity", "setting": "LNCaP [26]", "value": "Active"}, {"measurement": "Activity", "setting": "LNCaP [27]", "value": "Active"}, {"measurement": "Activity", "setting": "LNCaP [28]", "value": "Active"}, {"measurement": "Activity", "setting": "DU-145 [29]", "value": "inactive"}, {"measurement": "Activity", "setting": "DU-145 [30]", "value": "inactive"}, {"measurement": "Activity", "setting": "LNCaP [31]", "value": "Active"}, {"measurement": "Activity", "setting": "LNCaP [32]", "value": "Active"}, {"measurement": "Activity", "setting": "LNCaP [33]", "value": "Active"}, {"measurement": "Activity", "setting": "LNCaP [34]", "value": "inactive"}, {"measurement": "Activity", "setting": "LNCaP [35]", "value": "inactive"}, {"measurement": "Activity", "setting": "DU-145 [36]", "value": "Active"}, {"measurement": "Activity", "setting": "DU-145 [37]", "value": "Active"}, {"measurement": "Activity", "setting": "DU-145 [38]", "value": "inactive"}]}
